Data reported in patent US4071622A, “Treatment of a mammary or DMBA inducible tumor” (Abbott Laboratories, priority 1976, dated 1978).

System: DMBA-induced tumors
Assay: Regression of DMBA-induced tumors in female rats, 11-day treatment
Assay type: in vivo
Conditions: for total tumor volume of the treated group, day 3 / total tumor volume of the treated group, day 6 / total tumor volume of the treated group, day 10 / total tumor volume of the treated group upon sacrifice, day 11 / tumor volume of one specific animal, day 3 / tumor volume of one specific animal, day 6 / tumor volume of one specific animal, day 10 / tumor volume of one specific animal, day 11: 20 μg/day s.c., b.i.d.; for total tumor volume of the treated group, day 3: day 3 of treatment; for total tumor volume of the treated group, day 6: day 6 of treatment; for total tumor volume of the treated group, day 10: day 10 of treatment; for total tumor volume of the treated group upon sacrifice, day 11 / tumor volume of one specific animal, day 11: day 11, sacrifice; for total tumor volume of the treated group at the beginning of the treatment: day 0, 100 days after 20 mg DMBA intragastric, all tumors of the group summed; for tumor volume of one specific animal at start of treatment / tumor volume of one specific animal, day 3 / tumor volume of one specific animal, day 6 / tumor volume of one specific animal, day 10 / tumor volume of one specific animal, day 11: one animal of the group; for total volume reduction in one specific animal: start to day 11
Procedure: In a group of 3 female, 50-day old rats, tumors were induced by intragastric feeding of 20 mg of 7,12-dimethylbenzanthracene (DMBA) in 2 ml. of sesame oil. The animals developed tumors within 10-12 weeks. All animals were maintained on normal rations for 100 days following the DMBA administration, at which time treatment with the compound identified as Compound A was started, using a b.i.d. regimen for 11 days, 20 μg/day, the compound being administered subcutaneously dissolved in isotonic saline containing 0.1% (wt/vol.) of bovine serum albumin.
The three animals carried a total of 7 tumors at the beginning of the treatment with a total volume of 39.2 cc. After 3 days, the 7 tumors had reduced to a volume of 26.7 cc; on day 6 the volume had reduced to 18.6 cc, on day 10 it was 8.7 cc, which was also the volume upon sacrifice of the animals on day 11.
The animals were prepared and pre-treated in the same fashion as those in Example 2, but Compound B was used for the 11-day treatment. The three rats used started the regimen with a total of 7 tumors of 43.3 cc total volume. Again, the tumor volumes were measured on days 3, 6, 10 and upon sacrifice, showing 37.5, 24.9, 16.3 and 15.0 cc respectively.
Except for the use of Compound C, all steps of the preceding two examples were repeated. The total of 13.4 cc of volume of 3 tumors in two rats was reduced to 10.1, 5.4, 6.4 and 5.5 cc on days 3, 6, 10 and 11. […] However, that tumor was found reduced to 3.0 cc on day 11. A third animal treated in the same fashion started out the regimen with 4 tumors of 28.1 cc which reduced to 15 cc by day 6. The animal died thereafter of causes diagnosed as having no connection with the tumors or the treatment (chronic murine pneumonia).

SMILES	total tumor volume of the treated group, day 3	total tumor volume of the treated group, day 6	total tumor volume of the treated group, day 10	total tumor volume of the treated group upon sacrifice, day 11	total tumor volume of the treated group at the beginning of the treatment (baseline)	volume of one single tumor in one animal, day 6 (single tumor that spontaneously increased between days 6 and 10, day 6)	volume of one single tumor in one animal, day 10 (single tumor that spontaneously increased between days 6 and 10, day 10)	volume of one single tumor in one animal, day 11 (single tumor that spontaneously increased between days 6 and 10, day 11)	tumor volume of a third animal with 4 tumors at start of regimen (third animal, not in the group total, baseline)	tumor volume of a third animal with 4 tumors, by day 6 (third animal, not in the group total, day 6, animal died thereafter of unrelated chronic murine pneumonia)	tumor volume of one specific animal at start of treatment (baseline)	tumor volume of one specific animal, day 3	tumor volume of one specific animal, day 6 (day 6)	tumor volume of one specific animal, day 10 (day 10)	tumor volume of one specific animal, day 11	total volume reduction in one specific animal
CCNC(=O)[C@@H]1CCCN1C(=O)[C@H](CCCNC(=N)N)NC(=O)[C@H](CC(C)C)NC(=O)[C@@H](Cc1ccccc1)NC(=O)[C@H](Cc1ccc(O)cc1)NC(=O)[C@H](CO)NC(=O)[C@H](Cc1c[nH]c2ccccc12)NC(=O)[C@H](Cc1c[nH]cn1)NC(=O)[C@@H]1CCC(=O)N1 [Compound C]	10.1 cc	5.4 cc	6.4 cc	5.5 cc	13.4 cc	0.38 cc	4.6 cc	3.0 cc	28.1 cc	15 cc						
CCNC(=O)[C@@H]1CCCN1C(=O)[C@H](CCCNC(=N)N)NC(=O)[C@H](CC(C)C)NC(=O)[C@@H](Cc1c[nH]c2ccccc12)NC(=O)[C@H](Cc1ccc(O)cc1)NC(=O)[C@H](CO)NC(=O)[C@H](Cc1c[nH]c2ccccc12)NC(=O)[C@H](Cc1c[nH]cn1)NC(=O)[C@@H]1CCC(=O)N1 [Compound A]	26.7 cc	18.6 cc	8.7 cc	8.7 cc	39.2 cc						11.65 cc	7.5 cc	8.1 cc	3.8 cc	3.76 cc	67.7%
CCNC(=O)[C@@H]1CCCN1C(=O)[C@H](CCCNC(=N)N)NC(=O)[C@H](CC(C)C)NC(=O)[C@@H](Cc1ccc(O)cc1)NC(=O)[C@H](Cc1ccc(O)cc1)NC(=O)[C@H](CO)NC(=O)[C@H](Cc1c[nH]c2ccccc12)NC(=O)[C@H](Cc1c[nH]cn1)NC(=O)[C@@H]1CCC(=O)N1 [Compound B]	37.5 cc	24.9 cc	16.3 cc	15.0 cc	43.3 cc						3.6 cc	2.5 cc	1.33 cc	0.73 cc	0.125 cc	96.5%
